Laboratory results: patent publication US8148392B2, “2-indolyl imidazo [4,5-d] phenanthroline derivatives and their use in the treatment of cancer” (Lorus Therapeutics Inc., priority 2005, dated 2012)
“Also recorded” adds a separate entry of the source.

Experiments:
[1] = test system: human lung NCI-H460 cells; test: Large-cell lung carcinoma NCI-H460 xenograft model, tumour growth; assay type: in vivo, CD-1 female nude mice; conditions: for tumour size and weight: Lutrol (i.p.), lipid-based (i.v.) or water-based (i.p.) formulations
Procedure: The ability of compounds of Formula I to inhibit large-cell lung tumour growth in vivo was tested by determining the efficacy of compound 3 in a xenograft model as described below. Compound 3 was tested as a lipid-based formulation having the following composition: distearoylphosphatidylethanolamine-polyethylene glycol 2000 (DSPE-PEG/5% mole) and egg phosphatidylcoline (ePC/95% mole). The formulation was prepared as follows: Stock solutions of compound 3 and lipid (ePC and DSPE-PEG) were prepared in DMF. Specific volumes of the stock solutions of compound 3 and lipid were then mixed in order to achieve a final lipid concentration of 25 mg/mL (ePC:DSPE-PEG=95:5 (mol %) and a compound 3 to total lipid ratio of 1:10 (w/w). The mixture was stirred for four hours, thoroughly dried under nitrogen and left overnight under vacuum. HEPES buffer saline (HBS 0.01 M, pH=7.4) warmed to 60° C. was then added in order to rehydrate the dried film. The solutions were vortexed, stirred for 48 hours at room temperature and sonicated for two and half hours. The formulation was then centrifuged at 1000 rpm for 5 minutes to remove any free compound 3.
CD-1 female nude mice (6-7 weeks, 7 mice per treatment group) were injected […] with human lung NCI-H460 cells (3×10^6 cells in 0.1 ml PBS) subcutaneously. Treatment of the mice with vehicle or compound 3 was initiated 5 days post-inoculation (size of tumours=20-40 mm^3) for 7-day cycles of five days followed by a 2 day break for the duration of the experiment (35 days). Mice were treated with 80 mg/kg/d for the first week followed by 40 mg/kg/d until the end of the experiment. The size of the tumours was measured over the course of the experiment using calipers, and the weight of the tumours was measured after the animals were sacrificed.
The ability of compounds 3, 5, and 7 to inhibit large-cell lung carcinoma cell growth in vivo was tested in the mouse xenograft model as described in Example 27. The compounds were tested as Lutrol formulations (administered i.p.), lipid-based formulations micelles (administered i.v.), or water-based formulations (administered i.p.). The vehicle controls included Lutrol control (administered i.p.), lipid micelle control (administered i.v.), and water control (administered i.p.). Lutrol formulations contained 15% Lutrol and 10% DMSO. The composition of the lipid-based formulations and preparation of same was as described in Example 27 above.

[2] = PAR metal binding assay, iron; assay type: physicochemical; conditions: 200 μM compound
Procedure: (§1) Results are shown in FIGS. 28A (ZnCl2), 28B (CuCl2) and 28C (FeCl2). In vitro 4-(2-pyridylazo) resorcinol (PAR) zinc binding assay was performed as follows. In triplicate wells of 96-well plate (Sarstedt, Newton, N.C.), 10 μL volume of indicated final concentrations of ZnCl2 in 0.2M Tris-HCl, pH 7.5 was incubated with 10 μL of 80% acetonitrile-20% DMSO vehicle control or indicated final concentrations of the compounds of Formula I, dissolved in 80% acetonitrile-20% DMSO, for 15 min at room temperature. Then, 80 μL of PAR at final concentration of 200 μM in 0.2M Tris-HCl, pH 7.5 was added and the color development of PAR-Zn^2+ complex was measured by a multi-well spectrophotometer (Bio-Tek Instruments Inc.) at 500 nm.
(§2) Metal chelation property of compound 64 and the relative affinity on different metal ions were evaluated and compared with the effect of compound 3 in vitro using 4-(2-pyridylazo) resorcinol (PAR) colorimetric zinc assay utilizing methodology as described above in the preceding Examples. Indicated final concentrations of ZnCl2 (FIG. 56A), CuCl2 (FIG. 56B) or FeCl2 (FIG. 56C) were incubated with 80% acetonitrile-20% DMSO vehicle control or 200 μM of the compounds of Formula I. The color development of PAR-metal ion complex was measured by a multi-well spectrophotometer at 500 nm.

[3] = PAR metal binding assay, zinc; assay type: physicochemical; conditions: pH 7.5, 200 μM PAR
Procedure: as §1, §2

[4] = test system: MTF-1; test: MTF-1 mRNA in HT-29 tumour xenografts, RT-PCR; assay type: in vivo, CD-1 athymic nude mice; conditions: HT-29 xenograft, versus vehicle
Procedure: Correlation between zinc-sensitive transcription factor MTF-1 and a cell cycle regulator Cyclin D1 expression in HT-29 colon cancer xenograft tissues is shown in FIG. 30. Based on the presence of putative MTF-1-binding DNA sequences in Cyclin D1 gene promoter region (shown in FIG. 30A), expression levels of MTF-1 and Cyclin D1 in xenograft tissues were examined by RT-PCR, using tissue RNA extract.
The tumor regression efficacy of compound 3 was assessed in compound 3-treated HT-29-transplanted athymic mice (FIG. 54A), and correlated with gene expressions of MTF-1, KLF4 and Cyclin D1 in HT-29 xenograft tissues (FIG. 54B). CD-1 athymic nude mice (4 per group) were injected subcutaneously with HT-29 cells (3×10^6 cells in 0.1 mL PBS). At 5 days after tumor cell inoculation, the mice were intra-peritoneally injected with 200 μL vehicle control or 100 mg/kg compound 3, for 5 days followed by 10 days interval, for 2 cycles (day 5 to 9 as a first cycle injection and day 20 to 24 as a second cycle injection). The tumor size was measured during the course of treatment using calipers (FIG. 54A). The mice were sacrificed at 34 days after tumor cell inoculation. The tumor tissues were excised, frozen immediately and stored at −80° C. until RNA extraction and gene expression was analyzed by RT-PCR (FIG. 54B). […]

[5] = PAR metal binding assay, copper; assay type: physicochemical; conditions: pH 7.5, 200 μM PAR
Procedure: as §1, §2

Cc1[nH]c2ccccc2c1-c1nc2c3cccnc3c3ncccc3c2[nH]1 [Compound 3]
tumour size and weight [1]: able to decrease the size (FIG. 16A) and weight (FIG. 16B) of tumours
tumour growth (size and weight) ([1]; lipid-based formulation, 80 mg/kg/d first week then 40 mg/kg/d, 35 days): able to inhibit large-cell lung tumour growth
color development of PAR-Fe2+ [2]: minimally affected
Zn binding to PAR (PAR-Zn2+ absorbance at 500 nm) [3]: attenuated; also recorded: eliminated
MTF-1 expression in tumour xenografts ([4]; listed as compound 3): Decreased MTF-1 expression; also recorded: decrease in MTF-1 and Cyclin D1 gene expressions
Cu+2 binding to PAR (PAR-Cu2+ absorbance at 500 nm) [5]: attenuated; also recorded: eliminated

Cc1[nH]c2ccc(F)cc2c1-c1nc2c3cccnc3c3ncccc3c2[nH]1 [Compound 7]
tumour size and weight [1]: able to decrease the size (FIG. 16A) and weight (FIG. 16B) of tumours
MTF-1 expression in tumour xenografts [4]: Decreased MTF-1 expression

CCc1cccc2c(-c3nc4c5cccnc5c5ncccc5c4[nH]3)c(C(C)(C)C)[nH]c12 [Compound 64]
color development of PAR-Fe2+ [2]: minimally affected
Zn binding to PAR (PAR-Zn2+ absorbance at 500 nm) [3]: eliminated
Cu+2 binding to PAR (PAR-Cu2+ absorbance at 500 nm) [5]: eliminated
